Data published in patent publication US10828301B2, “2,4-pyrimidinediamine compounds and their uses” (Rigel Pharmaceuticals, Inc, priority 2002, dated 2020).

What was measured:
[1] = system: basophils in whole human peripheral blood; test: Basophil ionomycin activation: histamine release assay; assay type: cell-based
Description: Assays for ionomycin-induced basophil cell degranulation were carried out as described for the Basophil IgE or Dustmite Activation Assay (Section 6.4.6, supra), with the exception that following incubation with compound, cells were stimulated with 20 μl of 2 μM ionomycin.

[2] = system: IgE-induced degranulation of tissue mast cells; test: Mouse model of passive cutaneous anaphylaxis (PCA); assay type: in vivo; conditions: for inhibition of the PCA response: oral route in a PEG-based formulation, data not shown
Description: This model provides a direct measure of IgE-induced degranulation of tissue mast cells. In this model, IgE primed animals are exposed to an allergen challenge, and the change in permeability of dermal vasculature that results from histamine release from mast cells is measured by change in the amount of dye leakage into surrounding tissue. Inhibition of mediator release by compounds that modulate mast cell degranulation is easily measured by extracting the dye from the tissue.
In the PCA assay mice are passively sensitized by intradermal injection with anti-dinitrophenol (DNP) IgE antibodies (Day −1). At predetermined times animals are treated with the test agent (Day 0). The modulatory effect of the agent on cutaneous mast cell degranulation is measured following intravenous injection of DNP conjugated to human serum albumin (HSA-DNP), together with Evans blue dye. The resulting cross-linking of the IgE receptor and subsequent mast cell degranulation-induced increase in vascular permeability is determined by measuring the amount of dye extravasation into the tissue. Dye is extracted from the tissue by formamide, and the absorbance of this extract is read at 620 nm.

[3] = target: FcγRI receptor-mediated degranulation; test: FcγRI-mediated degranulation (activation with anti-human IgG Fab fragment); conditions: cells not primed with IgE, activated with rabbit anti-human IgG Fab fragment
[4] = system: cultured human mast cells (CHMC); test: CHMC low cell density IgE activation: tryptase and LTC4 assays; assay type: cell-based; conditions: Homo sapiens, Mast cell, Low Density CHMC, anti-IgE activation
Outline: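 Cultured human mast cells at low density (1000-1500 per well) rested 1 h at 37° C, then stimulated with anti-IgE for 30 min at 37° C. Supernatant tryptase measured with fluorogenic substrate (30 min, room temperature); LTC4 quantified by ELISA on diluted supernatant.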

Jurkat cells = test: Jurkat (T-cell) toxicity, light scatter; assay type: cell-based; conditions: Homo sapiens, 18-24 hr, flow cytometric light scatter, read-out: Toxicity Jurkat Light Scat.
Description: Dilute Jurkat cells to 2×10^5 cells/ml in complete RPMI (10% heat-inactivated fetal bovine serum) media and incubate at 37° C., 5% CO2 for 18 hours. Add 65 ul cells at 7.7×10^5 cells/ml to a 96-well V-bottom plate (TC-treated, Costar) containing 65 ul 2× compound (final vehicle concentration is 0.5% DMSO, 1.5% MeOH). Mix, incubate plates for 18-24 hr at 37° C., 5% CO2. Toxicity was assessed by flow cytometric analysis of cellular light scatter

B-cell line BJAB = test: BJAB (B-cell) toxicity, light scatter; assay type: cell-based; conditions: Homo sapiens; BJAB B-cells, flow cytometric light scatter; read-out: Toxicity BJAB Light Scat.
Description: The B-cell line BJAB was cultured in log phase in RPMI1640+10% heat-inactivated fetal bovine serum, lx L-glutamine, lx penicillin, lx […] and 1× beta-mercaptoethanol at 37° C., 5% CO2. First, BJABs were harvested, spun and resuspended in culture medium to a concentration of 7.7×10^5 cells/mL. 65 uL cells were mixed with 65 uL compound, in duplicate and in the presence of 0.1% DMSO in a V-bottomed 96-well tissue culture plate. Cells were incubated with compound at various dilutions at 37° C., 5% CO2. Toxicity was assessed by flow cytometric analysis of cellular light scatter.

[5] = system: bone marrow derived mast cells (BMMC); test: BMMC high cell density IgE activation: degranulation (hexosiminidase, histamine), leukotriene (LTC4) and cytokine (TNFalpha, IL-6) assays; assay type: cell-based; conditions: Mus musculus, anti-IgE activation, hexosaminidase release, read-out: BMMC anti-IgE hexos IC50
Description: After sensitizing, cells are counted, pelleted (1000 rpm, 5-10 minutes), and resuspended at 1-3×10^6 cells/ml in MT buffer. Add 100 ul of cell suspension to each well and 100 ul of compound dilutions. The final vehicle concentration is 0.5% DMSO. Incubate at 37° C. (5% CO2) for 1 hour. After 1 hour of compound treatment, stimulate cells with 6× stimulus (60 ng/ml DNP-BSA). Mix wells with the cells and allow plates to incubate at 37° C. (5% CO2) for one hour. After 1 hour incubation, pellet cells (10 minutes, 1000 RPM) and collect 200 ul per well of the supernatant, being careful not to disturb pellet, and transfer to a clean tube or 96-well plate. Place the supernatant plate on ice. During the 4-5 hour step (see next) perform the hexosiminidase assay. Resuspend cell pellet in 240 ul WEI-conditioned media containing 0.5% DMSO and corresponding concentration of compound. Incubate BMMC cells for 4-5 hours at 37° C. (5% CO2). After incubation, pellet cells (1000 RPM, 10 minutes) and collect 225 ul per well and place in −80° C. until ready to perform ELISAS. ELISAS are performed on appropriately diluted samples (determined empirically for each donor cell population so that the sample measurement falls within the standard curve) following the supplier's instructions.
Add 50 uL of BMMC cell supernatant (see above) to the hexoseaminidase substrate, place at 37° C. for 30 minutes and read the plate at 5, 10, 15, and 30 minutes on a spectrophotometer.

[6] = system: basophils in whole human peripheral blood; test: Basophil IgE activation: histamine release assay; assay type: cell-based; conditions: Homo sapiens, anti-IgE activation
Description: The basophil activation assay was carried out using whole human peripheral blood from donors allergic to dust mites with the majority of the red blood cells removed by dextran sedimentation. Human peripheral blood was mixed 1:1 with 3% dextran T500 and RBCs were allowed to settle for 20-25 min. The upper fraction was diluted with 3 volumes of D-PBS and cells were spun down for 10 min at 1500 rpm, RT. Supernatant was aspirated and cells were washed in an equal volume MT-buffer. Finally, cells were resuspended in MT-buffer containing 0.5% DMSO in the original blood volume. 80 uL cells were mixed with 20 uL compound in the presence of 0.5% DMSO, in triplicate, in a V-bottom 96-well tissue culture plate. A dose range of 8 compound concentrations was tested resulting in a 10-point dose response curve including maximum (stimulated) and minimum (unstimulated) response. […] The cells were stimulated for 30 minutes at 37° C., 5% CO2. The plate was spun for 10 min at 1500 rpm at room temperature and 80 uL the supernatant was harvested for histamine content analysis using the histamine ELISA kit supplied by Immunotech. The ELISA was performed according to supplier's instructions.

[7] = system: ionophore-induced degranulation of mast and/or basophil cells; test: Ionophore (ionomycin or A23187)-induced degranulation counter screen; assay type: cell-based; conditions: Mus musculus; high density BMMC, ionomycin activation, hexosaminidase release; read-out: BMMC Ionomycin Hexos. IC50
Excerpt: In addition to the FcεRI or FcγRI degranulation pathways discussed above, degranulation of mast and/or basophil cells can be induced by other agents. For example, ionomycin, a calcium ionophore that bypasses the early FcεRI or FcγRI signal transduction machinery of the cell, directly induces a calcium flux that triggers degranulation. Referring again to FIG. 2, activated PLCγ initiates pathways that lead to, among other things, calcium ion mobilization and subsequent degranulation. As illustrated, this Ca^2+ mobilization is triggered late in the FcεRI signal transduction pathway. […] Other ionophores that induce degranulation in this manner include A23187. The ability of granulation-inducing ionophores such as ionomycin to bypass the early stages of the FcεRI and/or FcγRI signaling cascades may be used as a counter screen to identify active compounds of the invention that specifically exert their degranulation-inhibitory activity by blocking or inhibiting the early FcεRI or FcγRI signaling cascades, as discussed above.
Assays suitable for determining the IC50 of ionophore-induced degranulation include any of the previously-described degranulation assays, with the modification that the cells are stimulated or activated with a degranulation-inducing calcium ionophore such as ionomycin or A23187 (A.G. Scientific, San Diego, Calif.) instead of anti-IgE antibodies or an IgE-specific allergen. Specific assays for assessing the ability of a particular 2,4-pyrimidinediamine compound of the invention to inhibit ionophore-induced degranulation are provided in the Examples section.

[8] = system: cultured human mast cells (CHMC); test: CHMC low cell density ionomycin activation: tryptase assay; assay type: cell-based; conditions: Homo sapiens, Mast cell, Low Density CHMC, ionomycin activation
[9] = LTC4 readout, read-out: CHMC anti-IgE LTC4
[10] = hexosaminidase readout, read-out: CHMC anti-IgE Hexos.
[11] = hexosaminidase readout, read-out: CHMC Ionomycin Hexos.

| SMILES | inhibition of FcγRI-mediated degranulation [3] | IC50 [4, 9] | IC50 [5] | IC50 (Jurkat cells) | IC50 (B-cell line BJAB) | IC50 [7] | further results |
| --- | --- | --- | --- | --- | --- | --- | --- |
| CNC(=O)COc1cccc(Nc2ncc(F)c(Nc3ccc4c(c3)OCCO4)n2)c1 [Compound R926495, N4-(3,4-Ethylenedioxyphenyl)-5-fluoro-N2-[3-(N-methylamino)carbonylmethyleneoxyphenyl]-2,4-pyrimidinediamine] | – | – | – | – | – | – | IC50 [1]: > 10 µM; inhibition of the PCA response [2]: able to inhibit the PCA response |
| CN(C)CCOC(c1ccccc1)c1ccccc1 [diphenhydramine, reference compound] | – | – | – | – | – | – | inhibition of the PCA response / FcεR-mediated vascular leakage (in words) ([2]; mouse, in vivo): inhibit the PCA response |
| O=C1Nc2cc(Nc3ncc(F)c(Nc4ccc5c(c4)NC(=O)C(F)(F)O5)n3)ccc2OC1(F)F [Compound R940352, N2,N4-[(2,2-Difluoro-4H-benzo[1,4]oxazin-3-one)-6-yl]-5-fluoro-2,4-pyrimidinediamine] | inhibit FcγRI-mediated degranulation | – | – | – | – | – | – |
| CNC(=O)COc1cccc(Nc2ncc(F)c(Nc3ccc4cc[nH]c4c3)n2)c1 [Compound R926745, 5-Fluoro-N4-[(1H)-indol-6-yl]-N2-[3-(N-methylamino)carbonylmethyleneoxyphenyl]-2,4-pyrimidinediamine] | – | – | – | – | – | – | inhibition of the PCA response [2]: able to inhibit the PCA response |
| CCOc1ccc(Nc2nc(Nc3ccc(OC)c(OC)c3)ncc2F)cc1 [Compound R926108, N2-(3,4-Dimethoxyphenyl)-N4-(4-ethoxyphenyl)-5-fluoro-2,4-pyrimidinediamine] | – | 760 nM | 900 nM | > 10 µM | > 10 µM | > 10 µM | IC50 [4, 10]: 787 nM; IC50 [8, 11]: 6.4 µM; IC50 ([1]; Homo sapiens): > 10 µM; IC50 [6]: 950 nM |
| CNC(=O)COc1cccc(Nc2ncc(F)c(Nc3ccc4c(c3)NC(=O)C(F)(F)O4)n2)c1 [Compound R921303, N4-[(2,2-Difluoro-4H-benzo[1,4]oxazin-3-one)-6-yl]-5-fluoro-N2-[3-(methylaminocarbonylmethyleneoxy)phenyl]-2,4-pyrimidinediamine] | inhibit FcγRI-mediated degranulation | – | – | – | – | – | – |
| COc1ccc(Nc2ncc(F)c(Nc3ccc(OC)c(OC)c3)n2)cc1OC [Compound R926110, N2,N4-Bis(3,4-dimethoxyphenyl)-5-fluoro-2,4-pyrimidinediamine] | – | 1420 nM | 1000 nM | > 10 µM | > 10 µM | 4.5 µM | IC50 [4, 10]: 1200 nM; IC50 ([4]; tryptase readout, read-out: CHMC anti-IgE Tryptase): 1070 nM; IC50 [8, 11]: > 10 µM; IC50 ([8]; tryptase readout, read-out: CHMC Ionomycin Tryptase): > 10 µM; IC50 ([1]; Homo sapiens): > 10 µM; IC50 [6]: 300 nM |
| CNC(=O)COc1cccc(Nc2ncc(F)c(Nc3ccc4c(n3)NC(=O)C(C)(C)O4)n2)c1 [Compound R940347, N4-[(2,2-Dimethyl-4H-5-pyrido[1,4]oxazin-3-one)-6-yl]-5-fluoro-N2-[3-(methylaminocarbonylmethyleneoxy)phenyl]-2,4-pyrimidinediamine] | inhibit FcγRI-mediated degranulation | – | – | – | – | – | – |

More lines, main results first:

| inhibition of FcγRI-mediated degranulation [3] | IC50 [4, 9] | IC50 [5] | SMILES | IC50 (Jurkat cells) | IC50 (B-cell line BJAB) | IC50 [7] | further results |
| --- | --- | --- | --- | --- | --- | --- | --- |
| inhibit FcγRI-mediated degranulation | – | – | Cc1cc(Nc2ncc(F)c(Nc3ccc4c(c3)NC(=O)C(F)(F)O4)n2)cc(Cl)c1O [Compound R926971] | – | – | – | – |
| – | 800 nM | 600 nM | Oc1cccc(Nc2ncc(F)c(Nc3ccc4c(c3)OCCO4)n2)c1 [Compound R926210, N4-(3,4-Ethylenedioxyphenyl)-5-fluoro-N2-(3-hydroxyphenyl)-2,4-pyrimidinediamine] | > 10 µM | > 10 µM | > 10 µM | IC50 ([1]; Homo sapiens): > 10 µM; IC50 [6]: 370 nM |
| – | 1590 nM | 1350 nM | CCOc1ccc(Nc2nc(Nc3cccc(O)c3)ncc2F)cc1 [Compound R926146, N4-(4-Ethoxyphenyl)-N2-(3-hydroxyphenyl)-5-fluoro-2,4-pyrimidinediamine] | > 10 µM | > 10 µM | 5 µM | IC50 [4, 10]: 761 nM; IC50 [8, 11]: 6.7 µM |
| inhibit FcγRI-mediated degranulation | – | – | CNC(=O)COc1cccc(Nc2ncc(F)c(Nc3ccc(OC(F)(F)F)c(Cl)c3)n2)c1 [Compound R920410, N4-(3-Chloro-4-trifluoromethoxyphenyl)-5-fluoro-N2-[3-(N-methylamino)carbonylmethyleneoxyphenyl]-2,4-pyrimidinediamine] | – | – | – | – |
